This experiment relates to P388 leukemia ip, CD2F1 mice, survival T/C. In words: NCI In Vivo Anticancer Drug Screen. Data for tumor model P388 Leukemia (intraperitoneal) in CD2F1 (CDF1) mice. The following applies: endpoint: median survival time, higher = longer survival. The method, boiled down: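 Mice carrying the transplanted tumor received test compound or vehicle. Survival was recorded in each group, and the value is the treated-group measurement divided by that of the vehicle-treated control group.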

The mark [1] stands for this setting: dose: 60.0 mg/kg/injection, schedule: Q01DX005 (ip), vehicle: saline with Tween-80.
The mark [2] stands for this setting: dose: 120.0 mg/kg/injection, schedule: Q01DX005 (ip), vehicle: saline with Tween-80.
Where [3] appears, read: dose: 50.0 mg/kg/injection, schedule: Q01DX005 (ip), vehicle: saline.
Where [4] appears, read: dose: 100.0 mg/kg/injection, schedule: Q01DX005 (ip), vehicle: saline.
Where [5] appears, read: dose: 200.0 mg/kg/injection, schedule: Q01DX005 (ip), vehicle: saline.
Where [6] appears, read: dose: 12.5 mg/kg/injection, schedule: Q01DX001 (ip), vehicle: Klucel (hydroxypropylcellulose) (HPC).
[7] abbreviates: dose: 25.0 mg/kg/injection, schedule: Q01DX001 (ip), vehicle: Klucel (hydroxypropylcellulose) (HPC).
Setting [8] is: dose: 240.0 mg/kg/injection, schedule: Q01DX005 (ip), vehicle: saline with Tween-80.
Setting [9] is: dose: 25.0 mg/kg/injection, schedule: Q01DX009 (ip), vehicle: saline.
[10] abbreviates: dose: 50.0 mg/kg/injection, schedule: Q01DX009 (ip), vehicle: saline.
The mark [11] stands for this setting: dose: 50.0 mg/kg/injection, schedule: Q01DX005 (ip), vehicle: saline with Tween-80.
Where [12] appears, read: dose: 100.0 mg/kg/injection, schedule: Q01DX005 (ip), vehicle: saline with Tween-80.
Where [13] appears, read: dose: 200.0 mg/kg/injection, schedule: Q01DX005 (ip), vehicle: saline with Tween-80.

The structures appear in SMILES notation. Where “and” joins values, the source holds several entries; their conditions need not be identical. Equal entries are not always repeated. Inconclusive results and toxic doses are left out. Square brackets hold non-standard residues; d marks the D form. Peptide text beside a SMILES is read from it. * marks the point of attachment. Nle = CCCC[CH](N)C(=O)O; Cbz = O=C(OCc1ccccc1)*; Sar = CNCC(=O)O

Consider `COc1ccc(Cl)cc1Cn1ccnc1`, for which the T/C was 97 % of control under setting [1] and 103 % of control under setting [2].

Take `CC1=COC(C)(C2NC(C)(C)CC(C)O2)CC1` (stereo unspecified): the T/C was 107 % of control under setting [3], 103 % of control under setting [4] and 102 % of control under setting [5].

`Nc1ncnc2c1ncn2C[c-]1[c-][c-][c-][c-]1.[Fe].[c-]1[c-][c-][cH-][c-]1`: the T/C is 94 % of control (dose: 50.0 mg/kg/injection, schedule: Q01DX005 (ip), vehicle: Klucel (hydroxypropylcellulose) (HPC)); 94 % of control (dose: 100.0 mg/kg/injection, schedule: Q01DX005 (ip), vehicle: Klucel (hydroxypropylcellulose) (HPC)); 100 % of control (dose: 200.0 mg/kg/injection, schedule: Q01DX005 (ip), vehicle: Klucel (hydroxypropylcellulose) (HPC)).

For `CCc1ccc(C2(C)C(=O)c3ccccc3C2=O)cc1`, the T/C reads like this: (dose: 100.0 mg/kg/injection, schedule: Q04DX002 (ip), vehicle: saline) 101 % of control; (dose: 200.0 mg/kg/injection, schedule: Q04DX002 (ip), vehicle: saline) 100 % of control; (dose: 400.0 mg/kg/injection, schedule: Q04DX002 (ip), vehicle: saline) 104 % of control.

On to `C[N+](C)(C)/N=C(/c1ccccc1)C1CCCCC1`, for which the T/C by setting is: under setting [6], 91 % of control; under setting [7], 100 % of control; (dose: 50.0 mg/kg/injection, schedule: Q01DX001 (ip), vehicle: Klucel (hydroxypropylcellulose) (HPC)) 97 % of control.

Regarding `O=CNc1ccc(C(=O)O)c(O)c1`, the T/C under setting [1] is 98 % of control, the T/C under setting [2] is 93 % of control and the T/C under setting [8] is 90 % of control.

For the compound `CC(CCCSC(=N)N)SC(=N)N` (stereo unspecified), the T/C (dose: 12.5 mg/kg/injection, schedule: Q01DX009 (ip), vehicle: saline) was 105 % of control; the T/C under setting [9] was 98 % of control; the T/C under setting [10] is 104 % of control.

With `CN(CC(=O)O)C(=O)CNC(=O)CN` (H-Gly-Gly-[Sar]-OH), the T/C reads like this: under setting [3], 91 % of control; under setting [4], 92 % of control; under setting [5], 91 % of control.

Turning to `NC(CCC(=O)NC(CS)C(=O)O)C(=O)O` (stereo unspecified), the T/C is 100 % of control under setting [10] and 111 % of control (dose: 100.0 mg/kg/injection, schedule: Q01DX009 (ip), vehicle: saline).

With `O=C(O)c1cocc1C(=O)N1Cc2cc3ccccc3nc2C1`, the T/C is 94 % of control (dose: 8.0 mg/kg/injection, schedule: Q01DX009 (ip), vehicle: saline with Tween-80); 92 % of control (dose: 16.0 mg/kg/injection, schedule: Q01DX009 (ip), vehicle: saline with Tween-80); 94 % of control (dose: 32.0 mg/kg/injection, schedule: Q01DX009 (ip), vehicle: saline with Tween-80); 108 % of control (dose: 64.0 mg/kg/injection, schedule: Q01DX009 (ip), vehicle: saline with Tween-80); 103 % of control (dose: 128.0 mg/kg/injection, schedule: Q01DX009 (ip), vehicle: saline with Tween-80).

For `CCC1(c2ccnc3ccccc23)C(=O)OC(C)(C)OC1=O`, the T/C is, setting by setting: (dose: 50.0 mg/kg/injection, schedule: Q01DX009 (ip), vehicle: distilled water + alcohol) 99 % of control; (dose: 100.0 mg/kg/injection, schedule: Q01DX009 (ip), vehicle: distilled water + alcohol) 98 % of control; (dose: 200.0 mg/kg/injection, schedule: Q01DX009 (ip), vehicle: distilled water + alcohol) 87 % of control.

Take `COc1ccc(NC(=O)CCC(=O)O)cc1`: the T/C (dose: 100.0 mg/kg/injection, schedule: Q01DX009 (ip), vehicle: saline with Tween-80) was 95 % of control; the T/C (dose: 200.0 mg/kg/injection, schedule: Q01DX009 (ip), vehicle: saline with Tween-80) was 95 % of control; the T/C (dose: 400.0 mg/kg/injection, schedule: Q01DX009 (ip), vehicle: saline with Tween-80) was 91 % of control.

For `Nc1nc([Se]c2nc(N)nc3c2ncn3C2OC(CO)C(O)C2O)c2ncn(C3OC(CO)C(O)C3O)c2n1` (stereo unspecified), the T/C (dose: 25.0 mg/kg/injection, schedule: Q01DX005 (ip), vehicle: distilled water + Tween-80) was 150 % of control; the T/C (dose: 50.0 mg/kg/injection, schedule: Q01DX005 (ip), vehicle: distilled water + Tween-80) was 161 % of control; the T/C (dose: 100.0 mg/kg/injection, schedule: Q01DX005 (ip), vehicle: distilled water + Tween-80) is 156 % of control.

On to `O=C(O)CNc1ccccc1.[Cu+2]`, for which the T/C (dose: 6.25 mg/kg/injection, schedule: Q01DX001 (ip), vehicle: Klucel (hydroxypropylcellulose) (HPC)) is 98 % of control; the T/C under setting [6] is 98 % of control; the T/C under setting [7] is 101 % of control and 112 % of control.

`COc1ccc2c(=O)c(Cc3ccccc3)coc2c1`: the T/C by setting is: under setting [1], 100 % of control; under setting [2], 97 % of control; under setting [8], 100 % of control.

Consider `Cc1cccc(C(C)C)c1NC(=O)C(=O)C(C#N)c1ccc(CC#N)cc1` (stereo unspecified), for which the T/C is, setting by setting: under setting [1], 99 % of control; under setting [2], 98 % of control.

Turning to `C/C(CCl)=N/NC1=NC(C)(CCC2(C)N=C(N/N=C(/C)CCl)SP2(=O)NC23CC4CC(CC(C4)C2)C3)P(=O)(NC23CC4CC(CC(C4)C2)C3)S1` (stereo unspecified), the T/C is 105 % of control under setting [1], 100 % of control under setting [2] and 91 % of control under setting [8].

Regarding `O=C1C(F)=C(N2CC2)C(=O)C(F)=C1N1CC1`, the T/C was 115 % of control (dose: 1.56 mg/kg/injection, schedule: Q01DX009 (ip), vehicle: saline); 114 % of control (dose: 3.12 mg/kg/injection, schedule: Q01DX009 (ip), vehicle: saline); 150 % of control (dose: 6.25 mg/kg/injection, schedule: Q01DX009 (ip), vehicle: saline).

Consider `O=C(Nc1ccc(NC(=O)Nc2cc(C(F)(F)F)ccc2Oc2ccc(Cl)c(Cl)c2)cc1)Nc1cc(C(F)(F)F)ccc1Oc1ccc(Cl)c(Cl)c1`, for which the T/C is 91 % of control (dose: 60.0 mg/kg/injection, schedule: Q01DX005 (ip), vehicle: Klucel (hydroxypropylcellulose) (HPC)); 98 % of control (dose: 120.0 mg/kg/injection, schedule: Q01DX005 (ip), vehicle: Klucel (hydroxypropylcellulose) (HPC)); 94 % of control (dose: 240.0 mg/kg/injection, schedule: Q01DX005 (ip), vehicle: Klucel (hydroxypropylcellulose) (HPC)).

`Nc1nnc2n(N)cnn12`: the T/C by setting is: (dose: 100.0 mg/kg/injection, schedule: Q04DX002 (ip), vehicle: water) 114 % of control; (dose: 200.0 mg/kg/injection, schedule: Q04DX002 (ip), vehicle: water) 109 % of control; (dose: 400.0 mg/kg/injection, schedule: Q04DX002 (ip), vehicle: water) 106 % of control.

As for `Cc1ccc2nc(N/N=C(\c3ccccc3)c3ccccn3)cc(C)c2c1`, the T/C reads like this: under setting [11], 100 % of control; under setting [12], 112 % of control.

Take `CCCCC(NC(=O)C(Cc1ccccc1)NC(=O)OCc1ccccc1)C(=O)O` (stereo not drawn) (Cbz-Phe-[Nle]-OH; configuration not given here): the T/C reads like this: under setting [11], 104 % of control; under setting [12], 105 % of control; under setting [13], 97 % of control.

As for `CCOC(=O)C(C(C)O)C1CC=CC1` (stereo unspecified), the T/C is 108 % of control under setting [11], 100 % of control under setting [12] and 104 % of control under setting [13].

Take `C[C@]12CCC(=O)C[C@@H]1CC[C@@H]1[C@@H]2CC[C@]2(C)[C@@H](OC(=O)N(CCCl)N=O)CC[C@@H]12`: the T/C by setting is: (dose: 25.0 mg/kg/injection, schedule: Q01DX005 (ip), vehicle: other) 105 % of control; (dose: 25.0 mg/kg/injection, schedule: Q01DX009 (ip), vehicle: other) 120 % of control; under setting [9], 106 % of control; (dose: 31.2 mg/kg/injection, schedule: Q04DX003 (ip), vehicle: saline) 116 % of control; (dose: 50.0 mg/kg/injection, schedule: Q01DX005 (ip), vehicle: other) 105 % of control; under setting [10], 121 % of control. The T/C is, setting by setting: (dose: 62.5 mg/kg/injection, schedule: Q04DX003 (ip), vehicle: saline) 110 % of control; (dose: 100.0 mg/kg/injection, schedule: Q01DX005 (ip), vehicle: other) 112 % of control; (dose: 100.0 mg/kg/injection, schedule: Q01DX009 (ip), vehicle: other) 100 % of control.

Source of the values: PubChem BioAssay AID330 (DTP/NCI, 2004).
